Data on five compounds can be found in patent publication US20250206761A1, “HALOINDOLE MACROCYCLIC COMPOUNDS FOR THE TREATMENT OF CANCER” (Hoffmann-La Roche Inc., priority 2022, published 2025).

Data set [1] has as its system NCI-H358 (ATCC-CRL5807) cells. Put plainly: Cell viability assay, G12C (NCI-H358). The data set is classed as cell-based, human. As to conditions: Homo sapiens; KRAS cell viability, NCI-H358, 72 hrs, Cell Counting Kit-8. The essentials:
(§1)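 Read-out is CCK-8 absorbance (OD450 minus OD650, 2 hrs after reagent), reflecting NADPH after 72 hrs of compound exposure in 0.5% DMSO. Seeding density was 5,000 cells/well for NCI-H358 and 2,000 for AGS and SW620. IC50 derived by 4-parameter sigmoidal fitting.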

Data set [2] relates to AGS (ATCC-CRL-1739) cells. Nature of the data set: Cell viability assay, G12D (AGS). The note with it: Homo sapiens, KRAS cell viability, 72 hrs, Cell Counting Kit-8. It is filed as cell-based, human. The essentials:
as §1

For another data set, the system named is SW620 (ATCC-CCL-227). Put plainly: Cell viability assay, G12V (SW620). It is filed as cell-based, human. As to conditions: Homo sapiens, SW-620; KRAS cell viability, SW620, 72 hrs, Cell Counting Kit-8. An outline of the steps:
as §1
A general note: Tetrazolium dyes change colour on reduction, which living cells bring about.

In another data set the target is KRAS G12C-BRAF complex (Homo sapiens (Human), UniProt P01116+P62937, G12C). Put plainly: KRAS G12C-BRAF NanoBit assay. It is filed as cell-based. The note with it: HEK293 cells, 3 hours of incubation. Here is the method: This assay is to measure the ability of tested compounds in disruption of the KRAS G12C-BRAF complex at the cellular level, we established the NanoBit cellular assay in mammalian HEK293 (ATCC) cells.
HEK293 cells were grown and maintained using DMEM medium (Thermo Fisher Scientific) with 10% fetal bovine serum and 1% penicillin/streptomycin. Both KRAS G12C and BRAF RBD were cloned into the NanoBit vectors ([…] vectors system, Promega) with the orientations SnmBit-KRAS G12C and BRAF RBD-LgBit, respectively, and co-transfected into HEK293 cells. Cells were then selected with 100 μg/mL Hygromycin B (10687010, Thermo Fisher) and Blasticidin (5 μg/mL) for 4 weeks to get the stable cell pool.
On the day of the assay, 75 nL of compound solution was presented in a 384-well assay plate as a 16-point 3-fold dilution starting from a final concentration of 30 μM in DMSO. Then cells were seeded at 10,000 cells/25 μL/well in a 384-well plate. After 3 hours of incubation, 6 μL of volume of Nano-Glo® Live Cell Substrate (Promega) was added into each well. Monitor luminescence using ultra384 model in Envision at 20 minutes. Compounds that facilitate disruption of the KRAS G12C-BRAF RBD complex were identified as those eliciting a decrease of luminescence relative to DMSO control wells.

Data set [3] concerns phosphorylation of ERK, KRAS G12C in NCJ-H358 cells. Nature of the data set: pERK inhibition assay, KRAS G12C. The data set is classed as cell-based, human. As to conditions: Homo sapiens, 4 hours. The essentials:
(§2)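 Cells plated the day before (NCJ-H358 30,000, AGS 20,000, SW620 30,000 per well), then exposed to compound for 4 h at 0.5% DMSO final. Fixed, permeabilized, and phospho-ERK detected by in-cell ELISA (anti-pERK, HRP secondary, TMB, OD450); IC50 from 4-parameter sigmoidal fit.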

For data set [4], the system named is phosphorylation of ERK, KRAS G12D in AGS cells. Put plainly: pERK inhibition assay, KRAS G12D. The note with it: Homo sapiens, 4 hours. It is filed as cell-based, human. An outline of the steps:
as §2

The subject of data set [5] is phosphorylation of ERK, KRAS G12V in SW620. Nature of the data set: pERK inhibition assay, KRAS G12V. It is filed as cell-based, human. As to conditions: Homo sapiens, SW-620, SW620, 4 hours. An outline of the steps: as §2
In data set [6] the test system is cryopreserved suspension hepatocytes from human. Nature of the data set: Human hepatocyte stability assay. It is filed as in vitro ADME. The note with it: for Clearance Category: human hepatocytes; for CL_hep (Human): human hepatocytes 1×10^6 cells/mL, 37° C. The procedure: The hepatocyte stability assay measures the rate of disappearance of a compound from incubations with cryopreserved suspension hepatocytes from human. Positive controls, including Midazolam, Raloxifene and Dextromethorphan, are included in every experiment. Incubations consist of […] tested compound and suspension of human hepatocytes (1×10^6 cells/mL) in supplemented Williams' E Medium with 10% FBS and 0.5% Penicillin-streptomycin. The hepatocyte suspension was incubated with intermittent shaking 900 rpm at 37° C., in a 5% CO2 incubator. The reaction was stopped by adding methanol containing internal standard (2 μM Tolbutamide) at 2, 10, 20, 40, 60 and 120 minutes after compound addition, depletion of the parent compound was monitored by LC-MS/MS analysis.

Chain of KRAS G12C-BRAF complex (P01116-2 other isoform, or with tags, fused parts or gaps G12C): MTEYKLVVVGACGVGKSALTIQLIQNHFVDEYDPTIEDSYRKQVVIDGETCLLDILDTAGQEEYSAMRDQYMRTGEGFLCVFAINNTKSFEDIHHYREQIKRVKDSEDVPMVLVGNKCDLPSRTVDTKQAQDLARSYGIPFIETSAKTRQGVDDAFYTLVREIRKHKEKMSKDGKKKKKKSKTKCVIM
Chain of KRAS G12C-BRAF complex (P62937 whole entry): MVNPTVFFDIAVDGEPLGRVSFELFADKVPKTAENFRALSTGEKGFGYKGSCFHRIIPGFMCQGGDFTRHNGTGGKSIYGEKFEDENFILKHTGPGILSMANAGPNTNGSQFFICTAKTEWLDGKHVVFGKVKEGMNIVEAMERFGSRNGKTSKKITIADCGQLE

In general, IC50 refers to the midpoint of a concentration-inhibition curve. Take `CO[C@@H](C)c1ncc(N2CCOCC2)cc1-c1c2c3cc(c(F)cc3n1CC(F)(F)F)-c1csc(n1)C[C@H](NC(=O)[C@H](C(C)C)N1CC[C@]3(CCN(C(=O)[C@H](F)Cl)C3)C1=O)C(=O)N1CCC[C@H](N1)C(=O)OCC(C)(C)C2` (atropisomer, axis not shown; (M)) [Example 57, (2S)-2-[(5S)-7-[(2R)-2-chloro-2-fluoro-acetyl]-1-oxo-2,7-diazaspiro[4.4]nonan-2-yl]-N-[(7S,13S)-24-fluoro-(20M)-20-[2-[(1S)-1-methoxyethyl]-5-morpholino-3-pyridyl]-17,17-dimethyl-8,14-dioxo-21-(2,2,2-trifluoroethyl)-15-oxa-4-thia-9,21,27,28-tetrazapentacyclo[17.5.2.1^2,5.1^9,13.0^22,26]octacosa-1(25),2,5(28),19,22(26),23-hexaen-7-yl]-3-methyl-butanamide]: the IC50 is 3 nM in data set [1]; 1300 nM in data set [2]; 59 nM in the data set with SW620 (ATCC-CCL-227); 23 nM against KRAS G12C-BRAF complex; 6 nM in data set [3]; 57 nM in data set [4]. Also, in data set [5], the concentration for half-maximal inhibition (IC50) is 33 nM.
With `CO[C@@H](C)c1ncc(N2CCOCC2)cc1-c1c2c3cc(c(F)cc3n1CC(F)(F)F)-c1csc(n1)C[C@H](NC(=O)[C@H](C(C)C)N1CCC3(CN(C(=O)[C@H](F)Cl)C3)C1=O)C(=O)N1CCC[C@H](N1)C(=O)OCC(C)(C)C2` (atropisomer, axis not shown; (M)) [Example 58, (2S)-2-[2-[(2R)-2-chloro-2-fluoro-acetyl]-5-oxo-2,6-diazaspiro[3.4]octan-6-yl]-N-[(7S,13S)-24-fluoro-(20M)-20-[2-[(1S)-1-methoxyethyl]-5-morpholino-3-pyridyl]-17,17-dimethyl-8,14-dioxo-21-(2,2,2-trifluoroethyl)-15-oxa-4-thia-9,21,27,28-tetrazapentacyclo[17.5.2.1^2,5.1^9,13.0^22,26]octacosa-1(25),2,5(28),19,22(26),23-hexaen-7-yl]-3-methyl-butanamide], the IC50 in data set [1] is 5 nM; in data set [2], 1500 nM; with SW620 (ATCC-CCL-227) it was 130 nM; against KRAS G12C-BRAF complex, 54 nM; in data set [3], 12 nM; in data set [4], 124 nM. This compound displayed an IC50 in data set [5] of 41 nM.
For the compound `CO[C@@H](C)c1ncc(N2CCN(C)CC2)cc1-c1c2c3cc(c(F)cc3n1CC(F)(F)F)-c1csc(n1)C[C@H](NC(=O)[C@H](C(C)C)N1CC[C@]3(CCN(C(=O)[C@H](F)Cl)C3)C1=O)C(=O)N1CCC[C@H](N1)C(=O)OCC(C)(C)C2` (atropisomer, axis not shown; (M)) [Example 5, (2S)-2-[(5S)-7-[(2R)-2-chloro-2-fluoro-acetyl]-1-oxo-2,7-diazaspiro[4.4]nonan-2-yl]-N-[(7S,13S)-24-fluoro-(20M)-20-[2-[(1S)-1-methoxyethyl]-5-(4-methylpiperazin-1-yl)-3-pyridyl]-17,17-dimethyl-8,14-dioxo-21-(2,2,2-trifluoroethyl)-15-oxa-4-thia-9,21,27,28-tetrazapentacyclo[17.5.2.1^2,5.1^9,13.0^22,26]octacosa-1(25),2,5(28),19,22(26),23-hexaen-7-yl]-3-methyl-butanamide], in data set [6], the “Clearance Category” value is “medium (16.24>CL_hep (mL/min/kg)>6.96 is medium clearance)”. In data set [6], the “CL_hep (Human)” value stood at 12.5 mL/min/kg. For the same compound, the IC50 in data set [1] is 2 nM; in data set [2], 2240 nM; with SW620 (ATCC-CCL-227), 42 nM; in data set [3], 2 nM; in data set [4], 48 nM; in data set [5], 26 nM.
With `CCn1c(-c2cc(N3CCN(C)CC3)cnc2[C@H](C)OC)c2c3cc(c(F)cc31)-c1csc(n1)C[C@H](NC(=O)[C@H](C(C)C)N1CCC3(CN(C(=O)[C@H](F)Cl)C3)C1=O)C(=O)N1CCC[C@H](N1)C(=O)OCC(C)(C)C2` (atropisomer, axis not shown; (M)) [Example 29, (2S)-2-[2-[(2R)-2-chloro-2-fluoro-acetyl]-5-oxo-2,6-diazaspiro[3.4]octan-6-yl]-N-[(7S,13S)-21-ethyl-24-fluoro-(20M)-20-[2-[(1S)-1-methoxyethyl]-5-(4-methylpiperazin-1-yl)-3-pyridyl]-17,17-dimethyl-8,14-dioxo-15-oxa-4-thia-9,21,27,28-tetrazapentacyclo[17.5.2.1^2,5.1^9,13.0^22,26]octacosa-1(25),2,5(28),19,22(26),23-hexaen-7-yl]-3-methyl-butanamide], the IC50 in data set [1] is less than 1 nM; in data set [2], 1230 nM; in the data set with SW620 (ATCC-CCL-227) it was 447 nM; against KRAS G12C-BRAF complex, 11000 nM; in data set [3], 1 nM; in data set [4], 12 nM. In addition, half-maximal inhibition in data set [5] (IC50) was put at 45 nM.
Turning to `CO[C@@H](C)c1ncc(N2CCN(C)CC2)cc1-c1c2c3cc(c(F)cc3n1CC(F)(F)F)-c1csc(n1)C[C@H](NC(=O)[C@H](C(C)C)N1CCCC3(CCN(C(=O)[C@H](F)Cl)CC3)C1=O)C(=O)N1CCC[C@H](N1)C(=O)OCC(C)(C)C2` (atropisomer, axis not shown; (M)) [Example 6, (2S)-2-[9-[(2R)-2-chloro-2-fluoro-acetyl]-1-oxo-2,9-diazaspiro[5.5]undecan-2-yl]-N-[(7S,13S)-24-fluoro-(20M)-20-[2-[(1S)-1-methoxyethyl]-5-(4-methylpiperazin-1-yl)-3-pyridyl]-17,17-dimethyl-8,14-dioxo-21-(2,2,2-trifluoroethyl)-15-oxa-4-thia-9,21,27,28-tetrazapentacyclo[17.5.2.1^2,5.1^9,13.0^22,26]octacosa-1(25),2,5(28),19,22(26),23-hexaen-7-yl]-3-methyl-butanamide], the “Clearance Category” value in data set [6] is “medium (16.24>CL_hep (mL/min/kg)>6.96 is medium clearance)”. In addition, the “CL_hep (Human)” value in data set [6] was 13.4 mL/min/kg. Moreover, the half-inhibitory concentration (IC50) turned out to be 1 nM in data set [1]; 76 nM in data set [2]; 21 nM with SW620 (ATCC-CCL-227); 1 nM in data set [3]; 21 nM in data set [4]; 24 nM in data set [5].
